We go through 2 substances from patent publication US10765751B2, “pH sensitive carrier and preparation method thereof, and pH sensitive drug and pH sensitive drug composition each containing the carrier, and method for treating or preventing diseases using the same” (TERUMO KABUSHIKI KAISHA, priority 2012, dated 2020).

The test system of test [1] is RAW cells. Put plainly: Evaluation of cytosolic delivery where pH sensitive carrier and physiologically active substance were used independently. It counts as cell-based. Conditions: 30 μg/mL peptide-FITC or OVA-FITC, carrier added separately (160 nmol pH sensitive compound, 100 nmol amphipathic substance); FIG. 22. The procedure: On the previous day, RAW cells were spread on a matsunami glass bottom dish and cultured with 10% FBS-containing MEM. After rinsing with PBS, MEM was added, followed by a one hour incubation. 1900 μL of MEM containing fluorescence-labeled peptide-FITC or fluorescence-labeled OVA-FITC at a concentration of 30 μg/mL was prepared and substituted with the culture medium. Moreover, a solution of 100 μL of a pH sensitive carrier was added, followed by 16 to 20 hours of incubation in the culture medium in such a state that both were mixed. It was already confirmed that the fluorescence-labeled peptide-FITC and fluorescence-labeled OVA-FITC were each not supported with the pH sensitive carrier in a mixed state with a pH sensitive carrier-containing solution. After rinsing with PBS and three hours post-incubation with 2 mL of fresh MEM, the cells were rinsed with PBS, followed by substitution with phenol red-free DMEM and observation through a fluorescence microscope. The culture was carried out by use of an incubator (MCO20AIC) set at 5% CO2 and 37° C. and the cells were observed through a fluorescence microscope (Axiovert 200M—soft: Axio vision 3.0—light source: Fluo Arc).

Test [2] has as its system RAW cells. Description: Cytosolic delivery of β-gal. The class given is cell-based. Conditions: 16 to 20 hours incubation, three hours post-incubation; FIG. 21. The procedure: Using PBS passed through a 0.22 μm filter, there was prepared a 1.4 mg/mL of β-gal solution. […] On the day before charge, the RAW cells were spread on a matsunami glass bottom dish and cultured, and the cells were rinsed with PBS immediately before charge. The culture was carried out by use of an incubator (MCO 20 AIC) set at 5% CO2 and 37° C. and a 10% FBS-containing MEM medium. After substitution with 1900 μL of a fresh 10% FBS-containing MEM medium, 100 μL of the respective samples was charged, followed by 16 to 20 hours incubation. The cells were rinsed at least three times with PBS. Thereafter, 2 mL of a fresh 10% FBS-containing MEM medium was added, following by three hours post-incubation. The cells were rinsed with PBS, followed by staining the cells with use of a β-Galactosidase Staining Kit (purchased from Takara Bio Inc.), and observing the cells through a microscope (Axiovert 200M—soft: Axio vision 3.0). The staining was carried out in accordance with the recommendation of the kit.

For the substance “fluorescence-labeled OVA-FITC: FITC fluorescence-labeled OVA model protein”, the “localisation of fluorescence-labeled peptide-FITC or OVA-FITC in cells (cytosolic delivery)” value with RAW cells [1] is listed as “remained in the endosome”.

Turning to β-D-galactosidase [β-gal alone], the “staining of cells by β-gal enzymatic activity (cytosolic delivery)” value in the test with RAW cells [2] is listed as “not stained”.
